Tests used:
Assay type in all cases: physicochemical
[1] = Hygroscopicity of the solid forms (DVS sorption/desorption isotherms); conditions: in words
Procedure: (§1) DVS isotherms were collected on a DVS-1, DVS-HT and DVS Intrinsic (SMS Surface Measurements Systems) moisture balance system. The sorption/desorption isotherms were measured stepwise in a range of 0% RH to 90% RH at 25° C. A weight change of <0.002 mg/min was chosen as criterion to switch to the next level of relative humidity (with a maximum equilibration time of 24 hours, if the weight criterion was not met). The data were corrected for the initial moisture content of the samples; that is, the weight after drying the sample at 0% RH was taken as the reference point.

[2] = Thermal solid-form transformation (DSC, temperature controlled XRPD); conditions: for temperature of thermal transformation into Sodium salt Form A: incubation at high temperature; for glass transition temperature, above which recrystallization is likely to occur: midpoint
Procedure: DSC curves were recorded using a Mettler-Toledo™ differential scanning calorimeter DSC820, DSC821 or DSC1 with a FRS05 sensor. System suitability tests were performed with indium as reference substance and calibrations were carried out using indium, benzoic acid, biphenyl and zinc as reference substances.
(§2) For the measurements, approximately 2-6 mg of sample were placed in aluminum pans, accurately weighed and hermetically closed with perforation lids. Prior to measurement, the lids were automatically pierced resulting in approx. 1.5 mm pin holes. The samples were then heated under a flow of nitrogen of about 100 mL/min using heating rates of usually 10 K/min.
(§3) X-ray powder diffraction patterns were recorded at ambient conditions in transmission geometry with a STOE STADI P diffractometer (Cu K ? ? radiation, primary monochromator, position sensitive detector, angular range 3° to 42° 2Theta, approximately 60 minutes total measurement time). Approximately 25 mg of sample were prepared and analyzed without further processing (e.g. grinding or sieving) of the substance.

[3] = Competing slurry experiment between Free acid Forms A, B and C; conditions: isopropyl acetate, 20 and 60° C., seeded with Free acid Form B and Form C, 14 days, wet stage XRPD
Procedure: Description of a typical competing slurry experiment:
200 and 300 mg of form A of (S)-2-methoxy-3-{4-[2-(5-methyl-2-phenyl-oxazol-4-yl)-ethoxy]-benzo[b]thiophen-7-yl}-propionic acid were each suspended in ca. 1 mL of isopropyl acetate at 20 and 60° C., respectively. After 24 h the two suspensions were seeded with approximately 10 mg of Free acid Form B and Free acid Form C. After 14 days the crystals were harvested by filtration and analyzed in wet stage by XRPD.

[4] = Relative stability of the solid forms (statements in words); conditions: for solid form stability: in words
[5] = Humidity-induced solid-form transformation (humidity controlled XRPD, DVS); conditions: at 25° C.
Procedure: as §1, §3

[6] = Decomposition temperature of the solid form (thermal analysis)
Procedure: TGA analysis was performed on a Mettler-Toledo™ thermogravimetric analyzer (TGA850 or TGA851). System suitability tests were performed with Hydranal as reference substance and calibrations using aluminum and indium as reference substances.
as §2, with “thermogravimetric analyses, approx. 5 to 10” for “measurements, approximately 2-6”, “50” for “100”, “using a” for “using”, “rate” for “rates”, “5” for “usually 10”

Compound: CO[C@@H](Cc1ccc(OCCc2nc(-c3ccccc3)oc2C)c2ccsc12)C(=O)O [Free acid Form A, (S)-2-methoxy-3-{4-[2-(5-methyl-2-phenyl-oxazol-4-yl)-ethoxy]-benzo[b]thiophen-7-y1}-propionic acid]
- hygroscopicity [1]: non-hygroscopic
- temperature of transformation into Free acid Form B ([2]; temperature controlled XRPD): > 85 °C
- solid form obtained in competing slurry [3]: pure Free acid Form A is obtained
- thermodynamic stability among polymorphs ([4]; below ca. 60° C.): thermodynamically most stable polymorph

Compound: CO[C@@H](Cc1ccc(OCCc2nc(-c3ccccc3)oc2C)c2ccsc12)C(=O)O [Free acid Form B, (S)-2-methoxy-3-{4-[2-(5-methyl-2-phenyl-oxazol-4-yl)-ethoxy]-benzo[b]thiophen-7-y1}-propionic acid]
- temperature below which spontaneous transformation into Free acid Form A occurs ([2]; extrapolated peak DSC): < −5 °C
- temperature of spontaneous solid-solid retransformation into Free acid Form A ([2]; observed at this temperature or below): ≤ 45 °C

Compound: CO[C@@H](Cc1ccc(OCCc2nc(-c3ccccc3)oc2C)c2ccsc12)C(=O)O [Free acid Form C, (S)-2-methoxy-3-{4-[2-(5-methyl-2-phenyl-oxazol-4-yl)-ethoxy]-benzo[b]thiophen-7-yl}-propionic acid]
- temperature of transformation into Free acid Form B ([2]; extrapolated peak DSC): ca. 150 °C
- thermodynamic stability among polymorphs ([4]; at ambient temperature): thermodynamically less stable than Free acid Form A and Free acid Form B

Compound: CO[C@@H](Cc1ccc(OCCc2nc(-c3ccccc3)oc2C)c2ccsc12)C(=O)O [Free acid Form D, (S)-2-methoxy-3-{4-[2-(5-methyl-2-phenyl-oxazol-4-yl)-ethoxy]-benzo[b]thiophen-7-yl}-propionic acid]
- solid form stability [4]: transforms into Free acid Form B upon storage at ambient conditions over time

Compound: CO[C@@H](Cc1ccc(OCCc2nc(-c3ccccc3)oc2C)c2ccsc12)C(=O)O [Free acid Form E, (S)-2-methoxy-3-{4-[2-(5-methyl-2-phenyl-oxazol-4-yl)-ethoxy]-benzo[b]thiophen-7-yl}-propionic acid]
- solid form stability [4]: transforms into Free acid Form B upon mild heating

Compound: CO[C@@H](Cc1ccc(OCCc2nc(-c3ccccc3)oc2C)c2ccsc12)C(=O)[O-].[Na+] [Sodium salt Form A, sodium (S)-2-methoxy-3-{4-[2-(5-methyl-2-phenyl-oxazol-4-yl)-ethoxy]-benzo[b]thiophen-7-yl}-propanoate]
- temperature of transformation into Sodium salt Form B [2]: > 208 °C
- relative humidity above which transformation into hydrated form occurs [5]: > 80 % RH

Compound: CO[C@@H](Cc1ccc(OCCc2nc(-c3ccccc3)oc2C)c2ccsc12)C(=O)[O-].[Na+] [Sodium salt Form B, sodium (S)-2-methoxy-3-{4-[2-(5-methyl-2-phenyl-oxazol-4-yl)-ethoxy]-benzo[b]thiophen-7-yl}-propanoate]
- temperature of thermal transformation into Sodium salt Form A [2]: > 120 °C
- solid form stability [4]: metastable

Compound: CO[C@@H](Cc1ccc(OCCc2nc(-c3ccccc3)oc2C)c2ccsc12)C(=O)[O-].[Na+] [Sodium salt Form C, sodium (S)-2-methoxy-3-{4-[2-(5-methyl-2-phenyl-oxazol-4-yl)-ethoxy]-benzo[b]thiophen-7-yl}-propanoate]
- relative humidity below which reversible transformation into a dehydrated solid form occurs ([5]; humidity controlled XRPD): < 15 %-RH

Compound: CO[C@@H](Cc1ccc(OCCc2nc(-c3ccccc3)oc2C)c2ccsc12)C(=O)[O-].[Na+] [Sodium salt amorphous form, sodium (S)-2-methoxy-3-{4-[2-(5-methyl-2-phenyl-oxazol-4-yl)-ethoxy]-benzo[b]thiophen-7-yl}-propanoate]
- hygroscopicity [1]: hygroscopic
- temperature of thermal transformation into Sodium salt Form A [2]: > 115 °C
- glass transition temperature, above which recrystallization is likely to occur [2]: approx. 65.5 °C
- relative humidity above which transformation into hydrated form occurs [5]: Above 50 % RH

Compound: CO[C@@H](Cc1ccc(OCCc2nc(-c3ccccc3)oc2C)c2ccsc12)C(=O)O [amorphous form of the Free acid, (S)-2-methoxy-3-{4-[2-(5-methyl-2-phenyl-oxazol-4-yl)-ethoxy]-benzo[b]thiophen-7-yl}-propionic acid]
- hygroscopicity ([1]; listed as amorphous form of (S)-2-methoxy-3-{4-[2-(5-methyl-2-phenyl-oxazol-4-yl)-ethoxy]-): hygroscopic
- glass transition temperature, above which recrystallization is likely to occur [2]: approx. 44 °C

Compound: diisopropylammonium (S)-2-methoxy-3-{4-[2-(5-methyl-2-phenyl-oxazol-4-yl)-ethoxy]-benzo[b]thiophen-7-yl}-propanoate [Diisopropylammonium salt Form A]
- hygroscopicity [1]: slightly hygroscopic
- decomposition temperature [6]: approx. 100 °C

— US20170281602A1, “SOLID FORMS OF (S)-2-METHOXY-3--PROPIONIC ACID AND OF SALTS THEREOF” (Hoffmann-La Roche Inc., priority 2012, published 2017)
